# Results published in patent US4621076A, “Pharmaceutical composition useful for inhibiting platelet aggregation” (Meito Sangyo Kabushiki Kaisha, priority 1982, dated 1986).
# Structures can show the parent of a compound that is named as a salt.
# Assays:
# [1] = test system: thrombin-induced platelet aggregation; assay: Inhibitory effect on thrombin-induced platelet aggregation in vitro, Table 2; format: cell-based, human (healthy person)
# Method: Blood was drawn from the cubital vein of a healthy person with a care taken to avoid congestion. […] 0.1 ml of a solution of 5'-GMP sodium salt in each of the concentrations shown in Table 1 below was added to 0.7 ml of PRP, and then each of the various platelet aggregation inducing agents shown in Table 1 was added. Changes in absorbance were measured by an aggregometer (made by Evans Company), and the rate of platelet aggregation inhibition was calculated from the following equation.
# The same experiment as in (1) above was carried out except that […] of thrombin was used as a platelet aggregation inducing agent.
# [2] = test system: platelet aggregation; details: cited from earlier work
# [3] = test system: thrombin-induced platelet aggregation; assay: Thrombin-induced platelet aggregation (inventors' test of 5'-GDP); format: cell-based; details: tests conducted by the present inventors
# [4] = test system: 5'-ADP-induced platelet aggregation; details: at high concentrations; cited from earlier work
# [5] = test system: platelet aggregation induced by arachidonic acid; assay: Inhibition of arachidonic acid-induced platelet aggregation in vitro (method of Born, human PRP, aggregometer); format: cell-based, human (healthy person); details: arachidonic acid 55.5 γ/ml, read-out: Rate of inhibition (%)
# Method: (§1) (1) Inhibitory effect of GMP on platelet aggregation induced by various platelet aggregation inducing substances:
# (§2) The inhibitory effect was measured by the method of Born (J. Physiol., vol. 168, p. 178, 1963).
# (§3) Blood was drawn from the cubital vein of a healthy person with a care taken to avoid congestion. One part by volume of a 3.8% sodium citrate solution was added to 9 parts by volume of the blood, and the mixture was centrifuged at 1,000 rpm for 10 minutes at room temperature to obtain platelet-rich plasma (PRP). 0.1 ml of a solution of 5'-GMP sodium salt in each of the concentrations shown in Table 1 below was added to 0.7 ml of PRP, and then each of the various platelet aggregation inducing agents shown in Table 1 was added. Changes in absorbance were measured by an aggregometer (made by Evans Company), and the rate of platelet aggregation inhibition was calculated from the following equation.
# [6] = test system: platelet aggregation induced by collagen; assay: Inhibition of collagen-induced platelet aggregation in vitro (method of Born, human PRP, aggregometer); format: cell-based, human (healthy person); details: collagen 5.5 γ/ml, read-out: Rate of inhibition (%)
# Method: as §1, §2, §3
# [7] = test system: platelet aggregation induced by 5'-ADP; assay: Inhibition of 5'-ADP-induced platelet aggregation in vitro (method of Born, human PRP, aggregometer); format: cell-based, human (healthy person); details: 5'-ADP 55.5 γ/ml, read-out: Rate of inhibition (%)
# Method: as §1, §2, §3
# [8] = test system: platelet aggregation induced by norepinephrine; assay: Inhibition of norepinephrine-induced platelet aggregation in vitro (method of Born, human PRP, aggregometer); format: cell-based, human (healthy person); details: norepinephrine 55.5 γ/ml, sample 1.00 mg/ml, read-out: Rate of inhibition (%)
# Method: as §1, §2, §3
# [9] = test system: platelet aggregation induced by thrombin; assay: Inhibition of thrombin-induced platelet aggregation in vitro, Table 1 (method of Born, human PRP, aggregometer); format: cell-based, human (healthy person)
# Method: as §1, §2, §3
# [10] = test system: platelet aggregation (thrombin-induced); assay: Duration of the platelet aggregation inhibiting effect in vivo in rabbits (thrombin added to PRP); details: rabbit
# Method: (3) Inhibitory effect on platelet aggregation in vivo:
# (1) Duration of the aggregation inhibiting effect.
# (§4) 5'-GMP sodium salt was administered to rabbits intravenously in a dose of 50 mg/kg or orally in a dose of 1 g/kg. After a predetermined period of time (30 seconds to 4 minutes in the case of intravenous injection, and 1 to 5 hours in oral administration), blood was drawn from the animals. One part by volume of a 3.8% solution of sodium citrate was added to 9 parts by volume of the blood, and the mixture was centrifuged at 1,000 rpm at room temperature for 10 minutes to obtain platelet-rich plasma (PRP). 0.1 ml of a thrombin solution (0.75 u/ml) was added to 0.7 ml of PRP, and then changes in absorbance were measured by an aggregometer (made by Evans Company).
# [11] = test system: platelet aggregation; assay: Relation between dose of GMP and aggregation inhibiting effect in rabbits in vivo; details: rabbit, one hour after administration
# Method: as §4
# (2) Relation between the dose of GMP and the aggregation inhibiting effect.
# Using rabbits, the dose response of the platelet aggregation inhibiting activity of 5'-GMP (sodium salt) in vivo was examined. 5'-GMP (sodium salt) was orally administered to the rabbits, and blood was drawn from the animals one hour after the administration. PRP was prepared in the same way as in section (1) above. The degree of platelet aggregation inhibition was measured by an aggregometer.
# [12] = test system: platelet aggregation (thrombin-induced); assay: Inhibitory effect on platelet aggregation in humans in vivo (thrombin added to PRP); parameters: species or system human (healthy persons); details: for Rate of platelet aggregation inhibition (%): five healthy persons, oral one gram
# Method: (4) Inhibitory effect on platelet aggregation in humans in vivo:
# One gram of 5'-GMP (sodium salt) was administered orally to each of five healthy persons, and blood was drawn from them after a predetermined period of time. One part by volume of a 3.8% aqueous solution of sodium citrate was added to 9 parts by volume of the blood, and the mixture was centrifuged at room temperature for 10 minutes at 1,000 rpm to obtain platelet-rich plasma (PRP). 0.1 ml of a thrombin solution (0.75 u/ml) was added to 0.7 ml of PRP, and changes in absorbance were measured by an aggregometer (made by Evans Company).
# [13] = Acute toxicity in mice (Litchfield-Wilcoxon); parameters: species or system mouse (ddY-strain); details: mouse, in vivo, ddY mice, parentheses: 95% reliability limits
# Method: The acute toxicity of the compound of formula (I) in accordance with this invention was examined.
# The test compound (guanosine 5'-monophosphate sodium salt) was dissolved in physiological saline, and the solution was administered to ddY-strain mice (body weight 20 to 25 g) intravenously or orally.
# The parenthesized figures show 95% reliability limits.
# [14] = test system: platelet aggregation induced by various platelet aggregation inducing substances; assay: Inhibition of platelet aggregation induced by various platelet aggregation inducing substances; format: cell-based, human (healthy person); details: Table 1
# Method: as §1, §2, §3
smiles,measurement,setting,value
"Nc1nc2c(ncn2[C@@H]2O[C@H](CO)[C@@H](OP(=O)(O)O)[C@H]2O)c(=O)[nH]1 [3'-GMP (sodium salt), Guanosine 3'-monophosphate]",inhibition at 2000 µg/mL,"[1]; Homo sapiens, Platelet, thrombin 0.25 μ/ml, compound 2.0 mg/ml, read-out: Inhibition rate (%)",87%
same,Inhibition rate (%),"[1]; thrombin 0.25 μ/ml, compound 2.0 mg/ml",80%
"Nc1ncnc2c1ncn2[C@@H]1O[C@H](COP(=O)(O)OP(=O)(O)O)[C@@H](O)[C@H]1O [5'-ADP, adenosine 5'-diphosphate]",action on platelet aggregation,[2],promoting platelet aggregation
"Nc1ncnc2c1ncn2[C@@H]1O[C@H](COP(=O)(O)O)[C@@H](O)[C@H]1O [5'-AMP, adenosine 5'-monophosphate]",action on platelet aggregation,[2],weak action of inhibiting platelet aggregation
"Nc1nc2c(ncn2[C@@H]2O[C@H](COP(=O)(O)OP(=O)(O)O)[C@@H](O)[C@H]2O)c(=O)[nH]1 [5'-GDP, guanosine 5'-diphosphate]",inhibitory action on thrombin-induced platelet aggregation,[3],no inhibitory action on thrombin-induced platelet aggregation
same,inhibitory action on 5'-ADP-induced platelet aggregation,[4],inhibitory action on 5'-ADP-induced platelet aggregation
"Nc1nc2c(ncn2[C@@H]2O[C@H](COP(=O)([O-])[O-])[C@@H](O)[C@H]2O)c(=O)[nH]1.[Na+].[Na+] [5'-GMP (sodium salt), guanosine 5'-monophosphate sodium salt]",inhibition at 10 µg/mL (stock),[5]; sample 0.01 mg/ml,22%
same,inhibition at 1000 µg/mL (stock),[5]; sample 1.00 mg/ml,40%
same,inhibition at 100 µg/mL (stock),[6]; sample 0.10 mg/ml,10%
same,inhibition at 1000 µg/mL (stock),[6]; sample 1.00 mg/ml,10%
same,inhibition at 100 µg/mL (stock),[7]; sample 0.10 mg/ml,3%
same,inhibition at 1000 µg/mL (stock),[7]; sample 1.00 mg/ml,10%
same,inhibition at 1000 µg/mL (stock),[8],8%
same,inhibition at 100 µg/mL,"[9]; Homo sapiens, Platelet, read-out: Rate of inhibition (%)",66%
same,inhibition at 1000 µg/mL (stock),"[9]; Homo sapiens, Platelet, thrombin 0.5 μ/ml, sample 1.0 mg/ml, read-out: Rate of inhibition (%)",80%
same,inhibition at 10000 µg/mL (stock),"[9]; Homo sapiens, Platelet, thrombin 0.5 μ/ml, sample 10.0 mg/ml, read-out: Rate of inhibition (%)",89%
same,inhibition at 500 µg/mL,"[1]; Homo sapiens, Platelet, read-out: Inhibition rate (%), thrombin 0.25 μ/ml, compound 0.5 mg/ml",75%
same,inhibition at 1000 µg/mL,"[1]; Homo sapiens, Platelet, thrombin 0.25 μ/ml, compound 1.0 mg/ml, read-out: Inhibition rate (%)",81%
same,Rate of platelet aggregation inhibition (%),"[10]; iv 50 mg/kg, 30 seconds",94%
same,Rate of platelet aggregation inhibition (%),"[10]; iv 50 mg/kg, 60 seconds",93%
same,Rate of platelet aggregation inhibition (%),"[10]; iv 50 mg/kg, 90 seconds",59%
same,Rate of platelet aggregation inhibition (%),"[10]; iv 50 mg/kg, 120 seconds",60%
same,Rate of platelet aggregation inhibition (%),"[10]; iv 50 mg/kg, 180 seconds",62%
same,Rate of platelet aggregation inhibition (%),"[10]; iv 50 mg/kg, 240 seconds",27%
same,Rate of platelet aggregation inhibition (%),"[10]; oral 1 g/kg, 1 hour",95%
same,Rate of platelet aggregation inhibition (%),"[10]; oral 1 g/kg, 2 hours",95%
same,Rate of platelet aggregation inhibition (%),"[10]; oral 1 g/kg, 3 hours",93%
same,Rate of platelet aggregation inhibition (%),"[10]; oral 1 g/kg, 4 hours",93%
same,Rate of platelet aggregation inhibition (%),"[10]; oral 1 g/kg, 5 hours",83%
same,Rate of platelet aggregation inhibition (%),[11]; oral 0.5 g/kg,38.8%
same,Rate of platelet aggregation inhibition (%),[11]; oral 1.0 g/kg,61.0%
same,Rate of platelet aggregation inhibition (%),[11]; oral 1.5 g/kg,75.2%
same,Rate of platelet aggregation inhibition (%),[11]; oral 2.0 g/kg,80.3%
same,Rate of platelet aggregation inhibition (%),[11]; oral 3.0 g/kg,100%
same,Rate of platelet aggregation inhibition (%),[12]; 1.5 hours,63%
same,Rate of platelet aggregation inhibition (%),[12]; 3 hours,75%
same,Rate of platelet aggregation inhibition (%),[12]; 4.5 hours,62%
same,LD50 at 72 h,[13]; iv,3350 mg/kg
same,LD50 at 72 h,[13]; po,14800 mg/kg
"Nc1nc2c(ncn2[C@@H]2O[C@H](COP(=O)(O)O)[C@@H](O)[C@H]2O)c(=O)[nH]1 [5'-GMP, Guanosine 5'-monophosphate]",effect against thrombin-induced aggregation,[9]; Table 1,especially effective against thrombin-induced aggregation
same,duration of effect,[10]; oral administration,≥ 5 h
same,inhibition of platelet aggregation,[10]; oral administration,marked inhibition of platelet aggregation
same,duration of effect,"[12]; humans, oral administration",≥ 4.5 h
same,inhibitory effect on aggregation inducing agents,[14],shows an inhibitory effect on all of the aggregation inducing agents tested
